From publication PMC6372683, “Mechanism of the natural product moracin-O derived MO-460 and its targeting protein hnRNPA2B1 on HIF-1α inhibition” (Experimental & Molecular Medicine, 2019)
Several values for one entry are separate records, joined by “and”; a condition that tells them apart may be missing. Equal entries are not always repeated. Entries after “also recorded” stand apart in the source; their conditions may differ.

What was measured:
[1] = system: HIF-1α mRNA in Hep3B cells; assay: HIF-1α mRNA level by qRT-PCR / RT-PCR; format: cell-based, human
Experimental: Cells were lysed with TRIzol (Invitrogen) and proteins were extracted with chloroform. RNAs were precipitated with isopropanol and washed with 75% ethanol diluted with DEPC-treated water. Purity and concentration of RNA was analyzed using nano drop. The cDNA was synthesized from total RNA in a reaction mixture containing 5 × reaction buffer (250 mM Tris-HCl pH 8.3, 375 mM KCl, 15 mM MgCl2, 50 mM DTT), 50 μg/mL Oligo-dT, 10 mM dNTP, and 50,000 U M-MLV reverse transcriptase (Promega, Madison, WI). Amplified PCR products obtained with β actin-specific primers served as internal controls. The sequences of the primers used for this study are listed in Supplementary Materials and Methods 5 and 6.

[2] = system: hnRNPA2B1 protein and HIF-1α mRNA complex; assay: RNA-immunoprecipitation of hnRNPA2B1 with HIF-1α mRNA; format: cell-based, human; conditions: Hep3B cells, mimetic hypoxia, 50 μM, 24 h
Experimental: Hep3B cells were cultured at 37 °C in a 5% atmospheric concentration of CO2 and 200 μM of CoCl2 in the presence or absence of MO-460 (50 μM) and the cells harvested after 24 h. Total lysates of Hep3B were prepared in nuclear isolation buffer [128 mM sucrose, 40 mM Tris-HCl pH 7.5, 20 mM MgCl2, 4% Triton-X100]. After clarifying by centrifugation at 2500× g for 15 min at 4 °C the nuclear pellet was resuspended in RIP buffer [150 mM KCl, 25 mM Tris-HCl pH 7.5, 5 mM EDTA, 0.5 mM DTT, 0.5% Triton-X100, and protease inhibitor cocktail], and then incubated with 4 μg of either control IgG or the anti-hnRNPA2B1 antibody. After 1.5 h of incubation, protein-G agarose beads (Santa Cruz Biotechnologies, Santa Cruz, CA) were added and then precipitated. RNAs were purified from 90% of the samples. Eluted RNAs were complemented by reverse transcriptase with random primers. cDNAs were used in the subsequent PCR reactions with the indicated primer sets. The resulting PCR products were separated on a 1.5% agarose gel. The other 10% of the samples from which RNA was not collected were separated by SDS-PAGE and then immunoblotted with anti-hnRNPA2B1 antibody.

[3] = biological target: T1, hnRNPA2B1 (Homo sapiens, UniProt P22626); assay: In vitro pull-down assay of purified recombinant hnRNPA2B1; format: binding; conditions: excess amount of MO-460 added
T1 construct: made in house; host or cells: HEK293T
T1 sequence (P22626 whole entry): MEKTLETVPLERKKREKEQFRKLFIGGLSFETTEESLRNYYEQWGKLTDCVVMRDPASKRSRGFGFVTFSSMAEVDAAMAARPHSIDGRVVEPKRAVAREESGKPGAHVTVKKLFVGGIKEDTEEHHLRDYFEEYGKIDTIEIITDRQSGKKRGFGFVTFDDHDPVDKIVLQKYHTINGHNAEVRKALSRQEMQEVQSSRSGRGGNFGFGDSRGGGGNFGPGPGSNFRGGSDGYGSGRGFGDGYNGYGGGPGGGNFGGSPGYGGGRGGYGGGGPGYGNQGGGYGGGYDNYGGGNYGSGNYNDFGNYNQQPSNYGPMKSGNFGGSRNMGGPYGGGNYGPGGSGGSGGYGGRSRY
Experimental: HEK293T cells were cultured in DMEM medium supplemented with 10% fetal bovine serum in a humidified atmosphere containing 5% CO2. The cells were transfected with C-terminal Myc/DDK-tagged hnRNPA2B1 constructs. Recombinant protein was captured with an anti-DDK affinity column followed by conventional chromatography. A streptavidin-conjugated biotin linker was used as a control or streptavidin-conjugated biotinylated MO-460 were treated with 5% bovine serum albumin in PBS for 1 h at room temperature. Myc/DDK-tagged hnRNPA2B1 protein (1 ug) was incubated with streptavidin-conjugated biotin linker (1,200 μM) or streptavidin-conjugated biotinylated MO-460 (400 μM) in the presence or absence of MO-460 (400 μg) in binding buffer for 6 h at 4 °C. The reacted beads were washed with binding buffer [10 mM HEPES pH 7.9, 10 mM KCl, 0.1 mM EGTA, 0.1 mM EDTA, 0.5 mM PMSF, 0.025% 2-mercaptoethanol, and protease inhibitor cocktail] and the bound proteins eluted with SDS/PAGE sample buffer. Proteins were resolved by SDS/PAGE and detected by silver staining.

[4] = biological target: T2, HIF-1α protein (Homo sapiens, UniProt Q16665); assay: Affinity capture with Biotin-MO-460 followed by LC/MS; format: binding; conditions: two rounds of the affinity capture experiment
T2 construct: endogenous in cells; host or cells: Hep3B (cytosolic and nuclear lysates, CoCl2-treated)
T2 sequence (Q16665 whole entry): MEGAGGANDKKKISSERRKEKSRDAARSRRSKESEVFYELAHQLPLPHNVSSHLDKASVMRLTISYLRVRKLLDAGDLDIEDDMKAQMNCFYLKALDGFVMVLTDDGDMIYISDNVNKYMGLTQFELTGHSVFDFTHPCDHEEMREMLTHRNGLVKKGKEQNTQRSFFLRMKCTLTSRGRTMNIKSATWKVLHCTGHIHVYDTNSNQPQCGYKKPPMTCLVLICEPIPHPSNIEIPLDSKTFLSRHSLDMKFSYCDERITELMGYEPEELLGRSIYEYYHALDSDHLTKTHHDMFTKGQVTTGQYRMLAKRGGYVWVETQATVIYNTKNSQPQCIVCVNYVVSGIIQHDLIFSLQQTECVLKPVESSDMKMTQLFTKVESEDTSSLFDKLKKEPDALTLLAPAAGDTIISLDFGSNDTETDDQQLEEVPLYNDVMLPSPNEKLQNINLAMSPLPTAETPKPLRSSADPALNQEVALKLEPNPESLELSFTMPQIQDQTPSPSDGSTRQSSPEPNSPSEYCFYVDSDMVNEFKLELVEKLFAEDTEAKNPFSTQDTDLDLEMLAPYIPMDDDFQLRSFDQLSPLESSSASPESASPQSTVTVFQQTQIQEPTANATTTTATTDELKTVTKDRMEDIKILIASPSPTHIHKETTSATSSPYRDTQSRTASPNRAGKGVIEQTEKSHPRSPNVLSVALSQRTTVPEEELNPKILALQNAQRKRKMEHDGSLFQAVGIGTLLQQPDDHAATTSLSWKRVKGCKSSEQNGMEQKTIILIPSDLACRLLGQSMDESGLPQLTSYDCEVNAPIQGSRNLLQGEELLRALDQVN
Experimental: We synthesized biotinylated MO-460 using a recently reported method. Fractionation and enrichment of cytosol and nuclei were performed as described previously. Briefly, Hep3B (Human hepatocyte cancer cell line) was harvested and washed twice with PBS after treatment with 200 μM of CoCl2 for 24 h, and then resuspended in lysis buffer [10 mM HEPES pH 7.9, 10 mM KCl, 0.1 mM EGTA, 0.1 mM EDTA, 0.5 mM PMSF, 0.025% 2-Mercaptoethanol, 1.6% NP-40, and protease inhibitor cocktail]. After cell lysis and homogenization by vortexing for 10 s, the insoluble material was removed by centrifugation. The supernatant was collected as a cytosol-enriched lysate. The pellet was resuspended in nuclear extract buffer [20 mM HEPES pH 7.9, 400 mM NaCl, 1 mM EGTA, 1 mM EDTA, 1 mM DTT, 1 mM PMSF, protease inhibitor cocktail]. The pellet was then vortexed vigorously at 4 °C to separate the insoluble material. After the cytosol-enriched lysate (97.9 μg of protein) and the nuclei-enriched lysate (67.5 μg of protein) were precleared by incubation with NeutrAvidine^TM agarose-resins (Thermo Scientific) that were conjugated with biotin-linker (cytosol fraction: 600 μM, nuclear fraction: 1200 μM) for 12 h at 4 °C, the cleared cell lysate was incubated with NeutrAvidine^TM agarose-resins bound -Biotin-MO-460 (cytosol fraction: 200 μM, nuclear fraction: 400 μM) for 16 h at 4 °C, respectively. […]

interaction between hnRNPA2B1 and biotin-MO-460 on competition [3]: eliminated
binding to HIF-1α protein [4]: did not bind to HIF-1α protein
Compound: CC(C)(O)[C@H]1Cc2cc3cc(-c4ccc(O)cc4)oc3cc2O1 [MO-460, (R)-4-[6-(1-Hydroxy-1-methylethyl)-5,6-dihydro-benzo[1,2-b;5,4-b’]difuran-2-yl]-phenol]
reduction in HIF-1α mRNA level ([1]; 50 µM, mimetic hypoxia, qRT-PCR): ~ 10% and < 10%
effect on HIF-1α transcript level ([1]; normoxic condition): no observed effect; also recorded: did not affect HIF-1α transcript levels
interaction between hnRNPA2B1 and HIF-1α mRNA [2]: abolished
